This test addresses T1, SMARCA2 (Homo sapiens, UniProt P51531).
T1 construct: endogenous in cells; host or cells: HT1080 (CRISPR HiBiT knock-in clone, generated in house)
The test is described as follows: SMARCA2 HiBiT degradation assay (cellular). Type of test: cell-based. The settings on record: table head names A549; for DC50: 6 h incubation, HiBiT-tagged SMARCA2, luminescence read-out, read-out: HiBit A549 SMARCA2 IP (nM) 6 h; for Emax: A549, 6 h incubation, Emax = amount of residual protein remaining in the cell following compound treatment. (The HiBiT peptide binds its large partner to form an active luciferase.)

The values below come from patent publication US20230024096A1, “BIFUNCTIONAL COMPOUNDS FOR THE TREATMENT OF CANCER” (Hoffmann-La Roche Inc., priority 2019, published 2023).

T1 sequence (P51531 whole entry): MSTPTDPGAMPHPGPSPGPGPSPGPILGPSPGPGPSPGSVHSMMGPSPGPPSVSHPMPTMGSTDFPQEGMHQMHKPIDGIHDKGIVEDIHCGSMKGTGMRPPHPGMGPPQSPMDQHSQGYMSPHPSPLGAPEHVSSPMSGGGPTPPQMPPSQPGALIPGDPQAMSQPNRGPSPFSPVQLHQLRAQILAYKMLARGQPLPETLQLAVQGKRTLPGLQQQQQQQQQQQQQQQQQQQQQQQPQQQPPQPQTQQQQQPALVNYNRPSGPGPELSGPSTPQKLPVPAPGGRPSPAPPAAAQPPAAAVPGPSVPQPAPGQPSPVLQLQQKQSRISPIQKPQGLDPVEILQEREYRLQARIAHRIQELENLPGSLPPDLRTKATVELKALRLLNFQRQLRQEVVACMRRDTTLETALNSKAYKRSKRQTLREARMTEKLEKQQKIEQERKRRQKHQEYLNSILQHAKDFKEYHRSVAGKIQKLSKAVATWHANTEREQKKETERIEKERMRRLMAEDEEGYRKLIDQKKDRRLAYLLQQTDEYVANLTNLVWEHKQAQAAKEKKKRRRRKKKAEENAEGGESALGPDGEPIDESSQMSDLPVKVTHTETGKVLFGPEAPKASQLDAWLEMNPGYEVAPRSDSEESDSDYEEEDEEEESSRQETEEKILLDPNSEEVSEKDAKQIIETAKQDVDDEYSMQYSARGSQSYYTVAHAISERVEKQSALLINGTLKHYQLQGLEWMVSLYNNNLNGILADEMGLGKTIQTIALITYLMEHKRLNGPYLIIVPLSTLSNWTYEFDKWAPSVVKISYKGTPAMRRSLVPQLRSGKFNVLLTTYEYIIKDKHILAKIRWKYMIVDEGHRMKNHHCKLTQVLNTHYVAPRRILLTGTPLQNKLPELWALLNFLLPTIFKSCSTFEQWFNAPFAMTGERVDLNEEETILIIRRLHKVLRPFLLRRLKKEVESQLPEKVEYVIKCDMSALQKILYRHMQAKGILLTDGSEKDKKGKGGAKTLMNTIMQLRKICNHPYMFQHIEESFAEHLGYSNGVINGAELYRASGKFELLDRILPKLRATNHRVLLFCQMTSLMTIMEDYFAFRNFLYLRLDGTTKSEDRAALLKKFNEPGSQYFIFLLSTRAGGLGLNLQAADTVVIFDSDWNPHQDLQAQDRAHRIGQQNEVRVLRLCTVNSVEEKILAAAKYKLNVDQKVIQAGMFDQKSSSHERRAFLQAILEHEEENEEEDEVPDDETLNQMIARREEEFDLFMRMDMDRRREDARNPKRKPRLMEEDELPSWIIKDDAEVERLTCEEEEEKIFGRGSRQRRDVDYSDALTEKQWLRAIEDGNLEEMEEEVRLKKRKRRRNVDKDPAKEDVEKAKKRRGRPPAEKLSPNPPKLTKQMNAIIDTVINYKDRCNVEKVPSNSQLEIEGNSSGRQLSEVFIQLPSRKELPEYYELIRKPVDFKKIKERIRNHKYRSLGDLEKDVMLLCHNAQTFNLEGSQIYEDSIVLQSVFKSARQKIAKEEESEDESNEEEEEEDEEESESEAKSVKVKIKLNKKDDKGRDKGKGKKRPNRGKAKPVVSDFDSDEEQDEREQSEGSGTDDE

As a reminder, the Emax is the greatest response seen or fitted, relative to the assay's reference. Regarding `Nc1nnc(-c2ccccc2O)cc1N1CC2CCC(C1)N2c1ccccc1OCCN1CCN(c2ccc3c(c2)C(=O)N(C2CCC(=O)NC2=O)C3=O)CC1` (racemic) [Example 144, rac-5-[4-[2-[2-[3-[3-amino-6-(2-hydroxyphenyl)pyridazin-4-yl]-3,8-diazabicyclo[3.2.1]octan-8-yl]phenoxy]ethyl]piperazin-1-yl]-2-(2,6-dioxo-3-piperidyl)isoindoline-1,3-dione], the DC50 came out at 797 nM and the maximal response (Emax) was determined as 75%.

As for `Nc1nnc(-c2ccccc2O)cc1N1CCC(CNC(=O)CC2CCN(c3ccc4c(c3)C(=O)N(C3CCC(=O)NC3=O)C4=O)CC2)(c2ccccc2)CC1` (stereo not drawn) [Example 77, N-((1-(3-amino-6-(2-hydroxyphenyl)pyridazin-4-yl)-4-phenylpiperidin-4-yl)methyl)-2-(1-(2-(2,6-dioxopiperidin-3-yl)-1,3-dioxoisoindolin-5-yl)piperidin-4-yl)acetamide], the DC50 is 77 nM and the Emax came out at 57%.

With `Nc1nnc(-c2ccccc2O)cc1OC1CCCN(c2ccc(N3CCN(CCCCCCCCCn4cc(CCNc5cccc6c5C(=O)N(C5CCC(=O)NC5=O)C6=O)nn4)CC3)cc2)C1` (stereo not drawn) [Example 110, 4-[2-[1-[9-[4-[4-[3-[3-amino-6-(2-hydroxyphenyl)pyridazin-4-yl]oxy-1-piperidyl]phenyl]piperazin-1-yl]nonyl]triazol-4-yl]ethylamino]-2-(2,6-dioxo-3-piperidyl)isoindoline-1,3-dione], the DC50 came out at 276 nM and the Emax was 52%.

Take `Nc1nnc(-c2ccccc2O)cc1N1CC(Oc2ccc(C(=O)N3CCN(C(=O)CCCCCCCCCNc4cccc5c4C(=O)N(C4CCC(=O)NC4=O)C5=O)CC3)cc2)C1` (stereo not drawn) [Example 150, 4-[[10-[4-[4-[1-[3-amino-6-(2-hydroxyphenyl)pyridazin-4-yl]azetidin-3-yl]oxybenzoyl]piperazin-1-yl]-10-oxo-decyl]amino]-2-(2,6-dioxo-3-piperidyl)isoindoline-1,3-dione]: the DC50 amounted to 553 nM and the maximal effect (Emax) stood at 65%.

`Nc1nnc(-c2ccccc2O)cc1N1CCC(C(=O)N2CCC3(CC2)CN(C(=O)COc2ccc4c(c2)C(=O)N(C2CCC(=O)NC2=O)C4=O)CCO3)(c2ccccc2)CC1` (stereo not drawn) [Example 166, 5-(2-(9-(1-(3-amino-6-(2-hydroxyphenyl)pyridazin-4-yl)-4-phenylpiperidine-4-carbonyl)-1-oxa-4,9-diazaspiro[5.5]undecan-4-yl)-2-oxoethoxy)-2-(2,6-dioxopiperidin-3-yl)isoindoline-1,3-dione]: the DC50 amounted to 607 nM and the Emax came to 53%.

Regarding `Nc1nnc(-c2ccccc2O)cc1N1CC2CCC(C1)N2c1cccc(OCCN2CCN(C(=O)CNC(=O)C3CCN(c4ccc5c(c4)C(=O)N(C4CCC(=O)NC4=O)C5=O)CC3)CC2)c1` (racemic) [Example 141, rac-N-[2-[4-[2-[3-[3-[3-amino-6-(2-hydroxyphenyl)pyridazin-4-yl]-3,8-diazabicyclo[3.2.1]octan-8-yl]phenoxy]ethyl]piperazin-1-yl]-2-oxo-ethyl]-1-[2-(2,6-dioxo-3-piperidyl)-1,3-dioxo-isoindolin-5-yl]piperidine-4-carboxamide], the DC50 came to 9 nM and the maximal effect (Emax) was found to be 19%.

Take `Nc1nnc(-c2ccccc2O)cc1N1CC2CCC(C1)N2c1cccc(OC2CCN(C(=O)CN3CCC(c4ccc(NC5CCC(=O)NC5=O)cc4)CC3)CC2)c1` (racemic) [Example 114, rac-3-[4-[1-[2-[4-[3-[3-[3-amino-6-(2-hydroxyphenyl)pyridazin-4-yl]-3,8-diazabicyclo[3.2.1]octan-8-yl]phenoxy]-1-piperidyl]-2-oxo-ethyl]-4-piperidyl]anilino]piperidine-2,6-dione]: the DC50 stood at 82 nM and the Emax is 40%.

With `Nc1nnc(-c2ccccc2O)cc1N1CC2CCC(C1)N2c1cccc(CC2CCN(C(=O)CCNc3cccc4c3C(=O)N(C3CCC(=O)NC3=O)C4=O)CC2)c1` (racemic) [Example 58, rac-4-[[3-[4-[[3-[3-[3-amino-6-(2-hydroxyphenyl)pyridazin-4-yl]-3,8-diazabicyclo[3.2.1]octan-8-yl]phenyl]methyl]-1-piperidyl]-3-oxo-propyl]amino]-2-(2,6-dioxo-3-piperidyl)isoindoline-1,3-dione], the DC50 stood at 43 nM and the maximal response (Emax) is 59%.

With `Nc1nnc(-c2ccccc2O)cc1N1CC2CCC(C1)N2c1ccc(C(F)(F)F)c(C(=O)N2CCN(C(=O)C3CCN(c4ccc5c(c4)C(=O)N(C4CCC(=O)NC4=O)C5=O)CC3)CC2)c1` (racemic) [Example 107, rac-5-[4-[4-[5-[3-[3-amino-6-(2-hydroxyphenyl)pyridazin-4-yl]-3,8-diazabicyclo[3.2.1]octan-8-yl]-2-(trifluoromethyl)benzoyl]piperazine-1-carbonyl]-1-piperidyl]-2-(2,6-dioxo-3-piperidyl)isoindoline-1,3-dione], the DC50 is 193 nM and the maximum response (Emax) worked out at 51%.

`Nc1nnc(-c2ccccc2O)cc1N1CC2CCC(C1)N2c1nccc(OCCN2CCN(CCCOC3CCN(c4ccc5c(c4)C(=O)N(C4CCC(=O)NC4=O)C5=O)CC3)CC2)n1` (racemic) [Example 161, rac-5-[4-[3-[4-[2-[2-[3-[3-Amino-6-(2-hydroxyphenyl)pyridazin-4-yl]-3,8-diazabicyclo[3.2.1]octan-8-yl]pyrimidin-4-yl]oxyethyl]piperazin-1-yl]propoxy]-1-piperidyl]-2-(2,6-dioxo-3-piperidyl)isoindoline-1,3-dione]: the DC50 was found to be 33 nM and the Emax was found to be 30%.

For the compound `Nc1nnc(-c2ccccc2O)cc1OC1CCCN(c2ccc(N3CCN(CCCCCCCCCn4cc(COc5cccc6c5C(=O)N(C5CCC(=O)NC5=O)C6=O)nn4)CC3)cc2)C1` (stereo not drawn) [Example 65, 4-[[1-[9-[4-[4-[3-[3-amino-6-(2-hydroxyphenyl)pyridazin-4-yl]oxy-1-piperidyl]phenyl]piperazin-1-yl]nonyl]triazol-4-yl]methoxy]-2-(2,6-dioxo-3-piperidyl)isoindoline-1,3-dione], the DC50 came to 115 nM and the Emax was determined as 31%.

`Nc1nnc(-c2ccccc2O)cc1N1CCC(CNC(=O)CNc2cccc3c2C(=O)N(C2CCC(=O)NC2=O)C3=O)(c2ccccc2)CC1` (stereo not drawn) [Example 76, N-((1-(3-amino-6-(2-hydroxyphenyl)pyridazin-4-yl)-4-phenylpiperidin-4-yl)methyl)-2-((2-(2,6-dioxopiperidin-3-yl)-1,3-dioxoisoindolin-4-yl)amino)acetamide]: the DC50 is 221 nM and the maximum response (Emax) came to 57%.

Turning to `Nc1nnc(-c2ccccc2O)cc1N1CCC(NC(=O)CCN2CCC(c3ccc(OC4CCC(=O)NC4=O)cc3)CC2)(c2ccccc2)CC1` (stereo not drawn) [Example 115, N-(1-(3-amino-6-(2-hydroxyphenyl)pyridazin-4-yl)-4-phenylpiperidin-4-yl)-3-(4-(4-((2,6-dioxopiperidin-3-yl)oxy)phenyl)piperidin-1-yl)propanamide diformate], the DC50 was found to be 810 nM and the maximal effect (Emax) was determined as 63%.

On to `Nc1nnc(-c2ccccc2O)cc1N1CC2CCC(C1)N2c1cccc(OCCN2CCN(C(=O)N3C[C@@H]4CN(c5ccc6c(c5)C(=O)N(C5CCC(=O)NC5=O)C6=O)C[C@@H]4C3)CC2)c1` (relative stereo) [Example 157, rac-2-(2,6-dioxo-3-piperidyl)-5-[rel-(3aS,6aR)-5-[4-[2-[3-[3-[3-amino-6-(2-hydroxyphenyl)pyridazin-4-yl]-3,8-diazabicyclo[3.2.1]octan-8-yl]phenoxy]ethyl]piperazine-1-carbonyl]-1,3,3a,4,6,6a-hexahydropyrrolo[3,4-c]pyrrol-2-yl]isoindoline-1,3-dione], for which the DC50 stood at 108 nM and the Emax was determined as 68%.

Consider `Nc1nnc(-c2cc(F)ccc2O)cc1N1C2CCC1CN(c1cccc(OCCN3CCN(C(=O)C4CCN(c5ccc6c(c5)C(=O)N(C5CCC(=O)NC5=O)C6=O)CC4)CC3)c1)C2` (stereo not drawn) [Example 160, 5-[4-[4-[2-[3-[8-[3-amino-6-(5-fluoro-2-hydroxy-phenyl)pyridazin-4-yl]-3,8-diazabicyclo[3.2.1]octan-3-yl]phenoxy]ethyl]piperazine-1-carbonyl]-1-piperidyl]-2-(2,6-dioxo-3-piperidyl)isoindoline-1,3-dione], for which the DC50 was 144 nM and the Emax was 74%.

In the case of `Nc1nnc(-c2ccccc2O)cc1OC1CCCN(c2ccc(N3CCN(CCCCCCCCCn4cc(CNc5cccc6c5C(=O)N(C5CCC(=O)NC5=O)C6=O)nn4)CC3)cc2)C1` (stereo not drawn) [Example 37, 4-[[1-[9-[4-[4-[3-[3-amino-6-(2-hydroxyphenyl)pyridazin-4-yl]oxy-1-piperidyl]phenyl]piperazin-1-yl]nonyl]triazol-4-yl]methylamino]-2-(2,6-dioxo-3-piperidyl)isoindoline-1,3-dione], the DC50 is 57 nM and the maximal effect (Emax) was found to be 34%.

As for `Nc1nnc(-c2ccccc2O)cc1N1CCC(CNC(=O)CCCN2CCC(c3ccc(OC4CCC(=O)NC4=O)cc3)CC2)(c2ccccc2)CC1` (stereo not drawn) [Example 78, N-((1-(3-amino-6-(2-hydroxyphenyl)pyridazin-4-yl)-4-phenylpiperidin-4-yl)methyl)-4-(4-(4-((2,6-dioxopiperidin-3-yl)oxy)phenyl)piperidin-1-yl)butanamide], the DC50 came to 23 nM and the Emax is 35%.

For `Nc1nnc(-c2ccccc2O)cc1N1CCC(OCC(=O)NC2CCN(C(=O)C3CCN(c4ccc5c(c4)C(=O)N(C4CCC(=O)NC4=O)C5=O)CC3)CC2)(c2ccccc2)CC1` (stereo not drawn) [Example 196, 2-[[1-[3-amino-6-(2-hydroxyphenyl)pyridazin-4-yl]-4-phenyl-4-piperidyl]oxy]-N-[1-[1-[2-(2,6-dioxo-3-piperidyl)-1,3-dioxo-isoindolin-5-yl]piperidine-4-carbonyl]-4-piperidyl]acetamide], the DC50 is 51 nM and the maximal effect (Emax) stood at 65%.
